Test results as given in patent EP1143251B9, “METHOD AND BIOSENSOR FOR DETECTING ANTIGEN” (priority 1999, dated 2000).

Key:
[1] = system: anti-dioxin monoclonal antibody; conditions: Catalog No. PDI-Dioxin-30, IgG1, host mouse; cited from earlier work
[2] = titer based on the toxicity of 2,3,7,8-TCDD (receptor binding, allylhydrocarbon hydroxylase inducing ability, toxic effect); cited from earlier work
[3] = system: anti-dioxin monoclonal antibody; experiment: surface plasmon resonance (BIAcore 2000) competitive method with HRP-2,3,7,8-TCDD on an antibody-fixed CM5 sensor chip; format: binding, mouse; conditions: average of the four cells
From the text: An anti-dioxin monoclonal antibody was fixed to a sensor chip by the aminocoupling method using BIAcore (registered trademark) 2000.
As a sensor chip to which the antibody was not fixed, a sensor chip (commercial name CM5) available from BIAcore company was used. The metallic thin film 14 is composed of gold, and its thickness is 50 nm. The fixing body 18 is carboxymethyldextran having no crosslinked structure, and its thickness is 100 nm.
As the anti-dioxin monoclonal antibody, Catalog No. PDI-Dioxin-30 (Research Diagnostics, Inc., Pleasant Hill Road, Flanders, New Jersey, USA) was used. As the host, mouse was used. This anti-dioxin monoclonal antibody contains 10 mg IgG1 in 3.125 ml (3.2 mg/ml), 0.2M PBS, pH 7.2, and 0.05% sodium azide.
First, BIAcore's sensor chip CM5 was set in BIAcore (registered trademark) 2000. Then, a mixed solution of N-ethyl-N'-(3-dimethylaminopropyl)carbodiimide hydrochloride (EDC) and N-hydroxysuccinimide (NHS) was injected into BIAcore (registered trademark) 2000 to activate the sensor chip CM5.
The anti-dioxin monoclonal antibody (1,000 ppm) was centrifuged to replace the solvent. Finally, the antibody was dissolved in 100 µl of 10 mM acetic acid environment solution. The resulting solution in an amount of 50 µl was injected into BIAcore (registered trademark) 2000 at a rate of 5 µl/min to fix the anti-dioxin monoclonal antibody onto the surface of the sensor chip. […]
Using the sensor chip obtained in Example 1, dioxins were detected by the competitive method. […]
The diluted 2,3,7,8-TCDD solution of each concentration was mixed with 10 ppm HRP-2,3,7,8-TCDD in BIAcore. […] A change in the disappearance angle due to the binding of 2,3,7,8-TCDD itself to the antibody is too small to be measured by SPR. […]
Then, the mixture was injected (3 µl/min) into BIAcore 2000, and an SPR signal was measured to determined the disappearance angle. That is, polarized light with a wavelength of 760 nm was projected, and the intensity of reflected light was measured, with the angle of incidence of incident light being varied. […]

Clc1cc(Cl)c2c(c1Cl)Oc1ccccc1O2 [1,2,4-TriCDD]
reactivity of the anti-dioxin monoclonal antibody [1]: <1.0%

Clc1cc2oc3cc(Cl)c(Cl)c(Cl)c3c2cc1Cl [1,2,3,7,8-Penta CDF]
TEF [2]: 0.05

Clc1cc(Cl)c2c(c1)Oc1cc(Cl)cc(Cl)c1O2 [1,3,7,9-Tetra CDD]
TEF [2]: 0

Clc1cc2c(c(Cl)c1Cl)Oc1c(cc(Cl)c(Cl)c1Cl)O2 [1,2,3,7,8,9-Hexa CDD]
TEF [2]: 0.1

Clc1c(Cl)c(Cl)c2c(c1Cl)Oc1c(Cl)c(Cl)c(Cl)c(Cl)c1O2 [Octa CDD]
TEF [2]: 0.001

Clc1cc2oc3cc(Cl)c(Cl)cc3c2cc1Cl [2,3,7,8-TCDF]
TEF [2]: 0.1
reactivity of the anti-dioxin monoclonal antibody [1]: 4.6%

Clc1cc(Cl)c2c(c1)Oc1c(Cl)cc(Cl)cc1O2 [1,3,6,8-Tetra CDD]
TEF [2]: 0

Clc1cc2c(cc1Cl)Oc1c(Cl)c(Cl)c(Cl)c(Cl)c1O2 [1,2,3,4,7,8-Hexa CDD]
TEF [2]: 0.1

Clc1cc2c(oc3c(Cl)c(Cl)c(Cl)cc32)c(Cl)c1Cl [2,3,4,6,7,8-Hexa CDF]
TEF [2]: 0.1

Clc1cc2c(oc3cc(Cl)c(Cl)c(Cl)c32)c(Cl)c1Cl [1,2,3,6,7,8-Hexa CDF]
TEF [2]: 0.1

Clc1ccc2c(c1)Oc1ccccc1O2 [2-CDD]
reactivity of the anti-dioxin monoclonal antibody [1]: 0.3%

Clc1c(Cl)c(Cl)c2c(oc3c(Cl)c(Cl)c(Cl)c(Cl)c32)c1Cl [Octa CDF]
TEF [2]: 0.001

Clc1ccc2c(c1)Oc1cc(Cl)c(Cl)cc1O2 [2,3,7-TriCDD]
reactivity of the anti-dioxin monoclonal antibody [1]: <20%

Clc1cc2c(c(Cl)c1Cl)Oc1cc(Cl)c(Cl)c(Cl)c1O2 [1,2,3,6,7,8-Hexa CDD]
TEF [2]: 0.1

Clc1cc2c(cc1Cl)Oc1cc(Cl)c(Cl)cc1O2 [2,3,7,8-TCDD]
ΔRU Average ([3]; Dioxin concentration 3.8 ppb): 234.75 RU
ΔRU Average ([3]; Dioxin concentration 7.6ppb): 197.9 RU
ΔRU Average ([3]; Dioxin concentration 76 ppb): 135.9 RU
TEF [2]: 1
reactivity of the anti-dioxin monoclonal antibody [1]: 100%

Clc1cc(Cl)c2c(c1)oc1c(Cl)cc(Cl)cc12 [1,3,6,8-Tetra CDF]
TEF [2]: 0

Clc1cc2oc3c(Cl)c(Cl)c(Cl)c(Cl)c3c2c(Cl)c1Cl [1,2,3,4,7,8,9-Hepta CDF]
TEF [2]: 0.1

Clc1cc2c(c(Cl)c1Cl)Oc1c(Cl)c(Cl)c(Cl)c(Cl)c1O2 [1,2,3,4,6,7,8-Hepta CDD]
TEF [2]: 0.01

Clc1cc2c(oc3c(Cl)c(Cl)c(Cl)c(Cl)c32)c(Cl)c1Cl [1,2,3,4,6,7,8-Hepta CDF]
TEF [2]: 0.1

Clc1cc2oc3c(Cl)c(Cl)c(Cl)c(Cl)c3c2cc1Cl [1,2,3,4,7,8-Hexa CDF]
TEF [2]: 0.1

Clc1cc2oc3cc(Cl)c(Cl)c(Cl)c3c2c(Cl)c1Cl [1,2,3,7,8,9-Hexa CDF]
TEF [2]: 0.1

Clc1cc2c(cc1Cl)Oc1c(cc(Cl)c(Cl)c1Cl)O2 [1,2,3,7,8-Penta CDD]
TEF [2]: 0.5

Clc1cc2c(cc1Cl)Oc1ccccc1O2 [2,3-DCDD]
reactivity of the anti-dioxin monoclonal antibody [1]: 2.2%
